# Laboratory results: PubChem BioAssay AID1996
# Details: buffer; pH 7.4; 200.0 µM
row,solubility kinetic [µg/mL],Structure (SMILES)
1,> 46.9,CCc1ccccc1N1CN(Cc2cccnc2)CNC1=S
2,1.1,CC(C)c1ccc(CN2CCSCC2)cc1
3,> 52.5,Cc1cc(NC(=O)COC(=O)c2cnccn2)ccc1Br
4,25.3,C#CCOc1ccccc1C(N)=O
5,45.5,Cc1ccc(NC(=O)CCCN2C(=S)NC(C)(C)CC2C)cc1 (stereo not given)
6,16.7,CC(C)C(=O)Nc1ccc(-c2nc3ccccc3c(=O)o2)cc1
7,> 31.4,O=C(c1ccc(F)cc1)N1CCOCC1
8,> 44.9,Cc1[nH]c2ccc(C(=O)N3CCC(C(N)=O)CC3)cc2c1C
9,> 41.1,O=C(c1cc(-c2ccccc2O)on1)N1CCOCC1
10,1.2,N#Cc1c(-c2ccc(F)cc2)c2c([nH]c1=O)-c1ccccc1OC2
11,49.1,COc1ccc(CNC(=O)c2cc(SC)ccc2Cl)cc1OC
12,21.7,O=c1[nH]sc2ccccc12
13,49.7,Cc1cccc(-n2ccnc2CN2CCN(C(C)C)C(CCO)C2)c1 (stereo not given)
14,> 43.9,O=C(CSc1ccc(Cl)cc1)NCc1ccncc1
15,> 39.1,O=C(CN1CCOCC1)Nc1ccc2c(c1)CCC2
16,49.4,CCN(CC)S(=O)(=O)c1ccc(N2CCCC2)c(NC(=O)c2ccc([N+](=O)[O-])o2)c1
17,3.9,Cc1nc(SCC(=O)Nc2ccccc2Cl)c2c(C)c(C)sc2n1
18,41.3,O=C(CCC(=O)N1CCCC1)Nc1ccc([N+](=O)[O-])cc1
19,> 52.8,CCCN1CCN(C(=O)CCCNC(=O)c2ccc(Cl)cc2)CC1
20,> 46.7,COc1ccc(NCC(=O)N/N=C/C(C)c2ccccc2)cc1 (stereo not given)
21,41.8,CCOC(=O)/C(=C/c1ccc(OC(=O)c2ccncc2)cc1)C(C)=O
22,28.7,Nc1ccccc1S(=O)(=O)NCCCCc1ccccc1
23,> 33.5,Cc1ccnc(SCC(=O)NC2CC2)n1
24,3.5,COc1ccc(CNC(=O)CN2CCN(S(=O)(=O)c3c(C)c(C)cc(C)c3C)CC2)cc1OC
25,4,CCOC(=O)c1ccc(N2C(=O)CC(Sc3nc(C)cc(C)n3)C2=O)cc1 (stereo not given)
26,< 0.4,CC(C)COc1ccc(CNC(=S)Nc2ccccc2)cc1Cl
27,7.9,COc1cc(/C=C(\C#N)C(=O)NCC2CCCO2)ccc1OCCC(C)C (stereo not given)
28,39.9,COc1ccc(S(=O)(=O)NCCc2ccccc2)cc1OC

row,solubility kinetic [µg/mL],Structure (SMILES)
1,6.1,COc1ccc(NC(=O)c2cc(C)nc3ccccc23)cc1S(=O)(=O)N1CCOCC1
2,12.6,CN(C)C(=O)c1cc(C(=O)c2ccc(F)cc2C(F)(F)F)c[nH]1
3,> 37.1,O=C(NC1CCCCC1)c1ccc2c(c1)OCO2
4,> 52.6,CN(Cc1ccccc1)C(=O)CN(C)S(=O)(=O)c1ccc(F)cc1
5,1.1,O=C(COc1ccc(NC(=O)c2ccccc2)cc1)c1ccccc1
6,2.1,COc1ccc(NC(=O)c2ccc(N3CCCC3=O)cc2)cc1Cl
7,5.7,COc1ccc(C2(C)CC(C)(C)Nc3ccccc32)cc1 (stereo not given)
8,43.4,COC(=O)c1c(C)oc(C)c1S(=O)(=O)NCc1cccs1
9,30.3,O=C(c1c(F)cccc1F)N(Cc1cccs1)C1CCCC1
10,50.8,CN1CCCN(C(=O)CNC(=O)c2ccc(Cl)cc2Cl)CC1
11,> 46.6,Cc1nc(NC(=O)CSc2nc(N)cc(N)n2)sc1C
12,> 44.6,Cc1ccc(S(=O)(=O)N2CCC3(CC2)OCCO3)cc1
13,1.7,O=[N+]([O-])c1cccnc1Sc1ccc(Br)cc1
14,15.6,Cc1cccc(NC(=O)CCOc2ccccc2)c1C
15,3.9,CC(C)OC(=O)/C(C#N)=C/c1cn(C)c2ccccc12
16,21.5,Nc1ccc2nc(-c3cccc(-c4nc5ccc(N)cc5[nH]4)n3)[nH]c2c1
17,8,Cc1cc(=O)oc2cc(NC(=O)c3ccccc3Cl)ccc12
18,> 44.8,NC(=O)C1CCN(C(=O)c2cc3ccccc3cc2O)CC1
19,44.6,Cc1noc(C)c1C(=O)NCc1ccccc1Br
20,> 56.2,CC(OC(=O)C1CC2CCCC(C1)C2=O)C(=O)Nc1cccc([N+](=O)[O-])c1 (stereo not given)
21,35.7,Cc1ccc(SCC(=O)NCc2ccccc2C)cc1
22,37.9,O=C(NCc1ccc2c(c1)OCO2)c1cccnc1Cl
23,< 0.2,Cc1cc(NC(=O)Nc2ccc(Cl)c(Cl)c2)no1
24,0.5,Cc1ccc(NC(=O)c2ccc3nsnc3c2)c(Cl)c1
25,> 42.7,O=S(=O)(c1cccc2nsnc12)N1CCNCC1
26,2.3,CCC(=O)Nc1ccc(OCc2nc3ccccc3s2)cc1
27,1.7,COc1ccc(C(=O)Nc2ccc(NC(=O)C3CC3)nc2)cc1

row,Structure (SMILES),solubility kinetic [µg/mL]
1,CC(=O)N1CCN(CC(=O)Nc2ccc(C#N)c(Cl)c2)CC1,> 48.1
2,CCCC/C(=N/O)c1c(C)[nH]c2ccccc12,30.7
3,CCN1CCN(c2nc3c(c(=O)[nH]2)CCC3)CC1,36.1
4,C/C(=N\N=C(N)N)c1ccccc1,> 26.4
5,Clc1ccccc1OCCCCN1CCNCC1.O=C(O)C(=O)O,> 53.8
